Assays:
[1] = test system: subjects with pulmonary hypertension; experiment: Oxygen saturation by pulse oximeter and methemoglobin by continuous percutaneous co-oximetry; format: in vivo, human
Protocol: Oxygen saturation measured by pulse oximeter and methemoglobin levels monitored by continuous percutaneous co-oximetry prior to dose administration and through 4 hours post-dose were monitored closely.

[2] = test system: hypoxic and normoxic subjects; conditions: Ingram et al. (Am J. Phsiol. 298:H331-H339 (2010)); cited from earlier work
[3] = Patient 1, nitrite 45 mg inhaled, 15 min
[4] = Patient 1, nitrite 45 mg inhaled, 30 min
[5] = Patient 1, nitrite 45 mg inhaled, 45 min
[6] = Patient 1, nitrite 45 mg inhaled, 60 min
[7] = Patient 1, nitrite 90 mg inhaled, 15 min
[8] = Patient 1, nitrite 90 mg inhaled, 30 min
[9] = Patient 1, nitrite 90 mg inhaled, 45 min
[10] = Patient 1, nitrite 90 mg inhaled, 60 min
[11] = Patient 2, nitrite 45 mg inhaled, 15 min
[12] = Patient 2, nitrite 45 mg inhaled, 30 min
[13] = Patient 2, nitrite 45 mg inhaled, 45 min
[14] = Patient 2, nitrite 45 mg inhaled, 60 min
[15] = Patient 2, nitrite 90 mg inhaled, 15 min
[16] = Patient 2, nitrite 90 mg inhaled, 30 min
[17] = Patient 2, nitrite 90 mg inhaled, 45 min
[18] = Patient 2, nitrite 90 mg inhaled, 60 min
[19] = Patient 3, nitrite 45 mg inhaled, 15 min
[20] = Patient 3, nitrite 45 mg inhaled, 30 min
[21] = Patient 3, nitrite 45 mg inhaled, 45 min
[22] = Patient 3, nitrite 45 mg inhaled, 60 min
[23] = Patient 3, nitrite 90 mg inhaled, 15 min
[24] = Patient 3, nitrite 90 mg inhaled, 30 min
[25] = Patient 3, nitrite 90 mg inhaled, 45 min
[26] = Patient 3, nitrite 90 mg inhaled, 60 min
[27] = Patient 4, nitrite 45 mg inhaled, 15 min
[28] = Patient 4, nitrite 45 mg inhaled, 30 min
[29] = Patient 4, nitrite 45 mg inhaled, 45 min
[30] = Patient 4, nitrite 45 mg inhaled, 60 min
[31] = Patient 4, nitrite 90 mg inhaled, 15 min
[32] = Patient 4, nitrite 90 mg inhaled, 30 min
[33] = Patient 4, nitrite 90 mg inhaled, 45 min
[34] = Patient 4, nitrite 90 mg inhaled, 60 min
[35] = Patient 5, nitrite 45 mg inhaled, 15 min
[36] = Patient 5, nitrite 45 mg inhaled, 30 min
[37] = Patient 5, nitrite 45 mg inhaled, 45 min
[38] = Patient 5, nitrite 45 mg inhaled, 60 min
[39] = Patient 5, nitrite 90 mg inhaled, 15 min
[40] = Patient 5, nitrite 90 mg inhaled, 30 min
[41] = Patient 5, nitrite 90 mg inhaled, 45 min
[42] = Patient 5, nitrite 90 mg inhaled, 60 min

O=NO [nitrite, sodium nitrite]
Syst O2sat [1, 3]: 95
metHgB [1, 3]: 1.1
Syst O2sat [1, 4]: 100
metHgB [1, 4]: 1.1
Syst O2sat [1, 5]: 92
metHgB [1, 5]: 1.3
Syst O2sat [1, 6]: 92
metHgB [1, 6]: 1.5
Syst O2sat [1, 7]: 95
metHgB [1, 7]: 1.4
Syst O2sat [1, 8]: 94
metHgB [1, 8]: 1.3
Syst O2sat [1, 9]: 94
metHgB [1, 9]: 1.2
Syst O2sat [1, 10]: 94
metHgB [1, 10]: 1.4
Syst O2sat [1, 11]: 98
metHgB [1, 11]: 1
Syst O2sat [1, 12]: 99
metHgB [1, 12]: 1
Syst O2sat [1, 13]: 99
metHgB [1, 13]: 1
Syst O2sat [1, 14]: 99
metHgB [1, 14]: 1
Syst O2sat [1, 15]: 96
metHgB [1, 15]: 1.4
Syst O2sat [1, 16]: 98
metHgB [1, 16]: 1.7
Syst O2sat [1, 17]: 98
metHgB [1, 17]: 1.7
Syst O2sat [1, 18]: 100
metHgB [1, 18]: 1.6
Syst O2sat [1, 19]: 92
metHgB [1, 19]: 1.1
Syst O2sat [1, 20]: 94
metHgB [1, 20]: 1.3
Syst O2sat [1, 21]: 93
metHgB [1, 21]: 1.5
Syst O2sat [1, 22]: 94
metHgB [1, 22]: 1.5
Syst O2sat [1, 23]: 97
metHgB [1, 23]: 1.7
Syst O2sat [1, 24]: 95
metHgB [1, 24]: 1.7
Syst O2sat [1, 25]: 95
metHgB [1, 25]: 1.6
Syst O2sat [1, 26]: 95
metHgB [1, 26]: 1.5
Syst O2sat [1, 27]: 98
metHgB [1, 27]: 1.3
Syst O2sat [1, 28]: 98
metHgB [1, 28]: 1.1
Syst O2sat [1, 29]: 99
metHgB [1, 29]: 1
Syst O2sat [1, 30]: 97
metHgB [1, 30]: 0.8
Syst O2sat [1, 31]: 97
metHgB [1, 31]: 1.7
Syst O2sat [1, 32]: 97
metHgB [1, 32]: 2
Syst O2sat [1, 33]: 96
metHgB [1, 33]: 1.2
Syst O2sat [1, 34]: 96
metHgB [1, 34]: 1.2
Syst O2sat [1, 35]: 94
metHgB [1, 35]: 1.1
Syst O2sat [1, 36]: 98
metHgB [1, 36]: 0.8
Syst O2sat [1, 37]: 97
metHgB [1, 37]: 0.7
Syst O2sat [1, 38]: 94
metHgB [1, 38]: 0.8
Syst O2sat [1, 39]: 95
metHgB [1, 39]: 0.9
Syst O2sat [1, 40]: 97
metHgB [1, 40]: 0.7
Syst O2sat [1, 41]: 98
metHgB [1, 41]: 0.7
Syst O2sat [1, 42]: 97
metHgB [1, 42]: 0.5
Syst O2sat ([1]; Patient 6, nitrite 45, 15 min): 95
metHgB ([1]; Patient 6, nitrite 45, 15 min): 1.1
Syst O2sat ([1]; Patient 6, nitrite 45, 30 min): 99
metHgB ([1]; Patient 6, nitrite 45, 30 min): 1.3
Syst O2sat ([1]; Patient 6, nitrite 45, 45 min): 96
metHgB ([1]; Patient 6, nitrite 45, 45 min): 1.3
Syst O2sat ([1]; Patient 6, nitrite 45, 60 min): 96
metHgB ([1]; Patient 6, nitrite 45, 60 min): 1.2
Syst O2sat ([1]; Patient 6, nitrite 90, 15 min): 95
metHgB ([1]; Patient 6, nitrite 90, 15 min): 1.9
Syst O2sat ([1]; Patient 6, nitrite 90, 30 min): 95
metHgB ([1]; Patient 6, nitrite 90, 30 min): 1.9
Syst O2sat ([1]; Patient 6, nitrite 90, 45 min): 96
metHgB ([1]; Patient 6, nitrite 90, 45 min): 1.7
Syst O2sat ([1]; Patient 6, nitrite 90, 60 min): 95
metHgB ([1]; Patient 6, nitrite 90, 60 min): 1.7
methemoglobin ([1]; at the doses tested (45 mg and 90 mg inhaled)): does not significantly affect
arterial and pulmonary vasodilation [2]: causes arterial and pulmonary vasodilation in hypoxic but not normoxic subjects

From patent publication US11986493B2 (University of Pittsburgh—Of the Commonwealth System of …, priority 2013, dated 2024)
